The results in this text go back to ChEMBL document CHEMBL4680234, “Antibacterial AZT derivative regulates metastasis of breast cancer cells” (Eur J Med Chem, 2020).

In data set [1] the test system is Erythrocyte. In words: Hemolytic activity in sheep RBC measured after 2 hrs by ELISA. The format is ADME, cell-based, Ovis aries.
Data set [2] deals with Pseudomonas aeruginosa. In words: Potency index, ratio of melittin MIC to test compound MIC for antibacterial activity against Pseudomonas aeruginosa KCTC 1637. The format is functional.
In data set [3] the test system is Staphylococcus aureus. In words: Antibacterial activity against Staphylococcus aureus KCTC 1621 assessed as reduction in bacterial growth incubated for 18 to 22 hrs by spectrophotometry based broth microdilution method. The note with it: time 18-22 hrs, read-out: MIC100. Type of data set: functional.
A short description of data set [4]: Therapeutic index, ratio of MHC for sheep RBC to geometric mean of peptide MIC for Pseudomonas aeruginosa KCTC 1637. Type of data set: toxicity. The note with it: sheep red blood cells (erythrocytes), read-out: TI.
The subject of data set [5] is Erythrocyte. Nature of the data set: Hemolytic activity in sheep RBC at 16 ug/ml measured after 2 hrs by ELISA. The format is cell-based, Ovis aries. The conditions noted are these: dose 16 µg/ml. (In general: In an ELISA, binding on a coated surface is turned into a signal by an enzyme label.)
The nature of data set [6]: Therapeutic index, ratio of MHC for sheep RBC to geometric mean of peptide MIC for Staphylococcus aureus KCTC 1621. The format is toxicity. The conditions noted are these: sheep red blood cells (erythrocytes), read-out: TI.
Data set [7] can be described thus: Therapeutic index, ratio of MHC for sheep RBC to geometric mean of peptide MIC for Bacillus subtilis KCTC 3068. The note with it: sheep red blood cells (erythrocytes), read-out: TI. The format is toxicity.
For data set [8], the system named is Bacillus subtilis. Nature of the data set: Antibacterial activity against Bacillus subtilis KCTC 3068 assessed as reduction in bacterial growth incubated for 18 to 22 hrs by spectrophotometry based broth microdilution method. The format is functional. The note with it: time 18-22 hrs, read-out: MIC100. Background: Dilution methods test growth across graded concentrations, often in twofold steps.

Data set [9] can be described thus: Therapeutic index, ratio of MHC for sheep RBC to geometric mean of peptide MIC for Escherichia coli KCTC 1682. The conditions noted are these: sheep red blood cells (erythrocytes), read-out: TI. The format is toxicity.
For data set [10], the system named is Escherichia coli. Nature of the data set: Antibacterial activity against Escherichia coli KCTC 1682 assessed as reduction in bacterial growth incubated for 18 to 22 hrs by spectrophotometry based broth microdilution method. The format is functional. The note with it: time 18-22 hrs, read-out: MIC100.
Data set [11] concerns Pseudomonas aeruginosa. Nature of the data set: Antibacterial activity against Pseudomonas aeruginosa KCTC 1637 assessed as reduction in bacterial growth incubated for 18 to 22 hrs by spectrophotometry based broth microdilution method. The note with it: time 18-22 hrs, read-out: MIC100. The format is functional.
For data set [12], the system named is Escherichia coli. Nature of the data set: Potency index, ratio of melittin MIC to test compound MIC for antibacterial activity against Escherichia coli KCTC 1682. Type of data set: functional.
Data set [13] concerns Staphylococcus aureus. In words: Antimicrobial activity against methicillin-resistant Staphylococcus aureus CCARM 3095 assessed as reduction in microbial growth incubated for 18 to 24 hrs by broth microdilution method. The format is functional. The note with it: time 18-24 hrs.
The test system of data set [14] is Staphylococcus aureus. In words: Antimicrobial activity against methicillin-resistant Staphylococcus aureus CCARM 3090 assessed as reduction in microbial growth incubated for 18 to 24 hrs by broth microdilution method. Type of data set: functional. The conditions noted are these: time 18-24 hrs.
Data set [15] has as its system Staphylococcus aureus. Nature of the data set: Antimicrobial activity against methicillin-resistant Staphylococcus aureus CCARM 3089 assessed as reduction in microbial growth incubated for 18 to 24 hrs by broth microdilution method. The format is functional. The conditions noted are these: time 18-24 hrs.
The test system of data set [16] is Bacillus subtilis. Nature of the data set: Potency index, ratio of melittin MIC to test compound MIC for antibacterial activity against Bacillus subtilis KCTC 3068. Type of data set: functional.
The test system of data set [17] is Staphylococcus aureus. Nature of the data set: Potency index, ratio of melittin MIC to test compound MIC for antibacterial activity against Staphylococcus aureus KCTC 1621. The format is functional.
Data set [18] in a line: Hemolytic activity in sheep RBC assessed as hemolysis at 4 ug/ml measured after 2 hrs by ELISA relative to control. Type of data set: ADME, cell-based, Ovis aries, Erythrocyte. The conditions noted are these: sheep red blood cells (erythrocytes), at 4 µg/mL, read-out: Activity.

≈ marks a conversion by molar mass, not a printed value.

`Cc1cn([C@H]2C[C@H](NC(=O)CC34CC5CC(CC(C5)C3)C4)[C@@H](CNC(=O)CC34CC5CC(CC(C5)C3)C4)O2)c(=O)nc1NCCNC(=N)N`: the MHC with Erythrocyte [1] was 43 µg/mL. The Ratio with Pseudomonas aeruginosa [2] and in the data set with Escherichia coli [12] was 2 in each case. Besides, the MIC in the data set with Staphylococcus aureus [3] was 4 µg/mL (≈ 5.91 µM); in the data set on Bacillus subtilis [8], 4 µg/mL (≈ 5.91 µM); in the data set with Escherichia coli [10], 64 µg/mL (≈ 94.5 µM); in the data set on Pseudomonas aeruginosa [11] it was greater than 64 µg/mL. Further, the selectivity ratio in [4], in data set [6], in data set [7] and in data set [9] was 0.9 each time. In addition, in the data set on Erythrocyte [5], the Activity entry is given as “Non-Toxic”.
Regarding `CCCCCC(=O)NC[C@H]1O[C@@H](n2cc(C)c(N(CCCN)CCCN)nc2=O)C[C@@H]1NC(=O)CCCCC`, the MIC with Staphylococcus aureus [3] was greater than 64 µg/mL; with Bacillus subtilis [8], 64 µg/mL (≈ 116 µM); with Escherichia coli [10] it was greater than 64 µg/mL; in the data set with Pseudomonas aeruginosa [11] it was 8 µg/mL (≈ 14.6 µM).
On to `O=C(O)c1cn(C2CC2)c2cc(N3CCNCC3)c(F)cc2c1=O` [CIPROFLOXACIN], for which the MIC in the data set with Staphylococcus aureus [13], in the data set with Staphylococcus aureus [14] and with Staphylococcus aureus [15] was 512 µg/mL throughout.
Take `Cc1cn([C@H]2C[C@H](NC(=O)C3CCCCC3)[C@@H](CNC(=O)C3CCCCC3)O2)c(=O)nc1N(CCCN)CCCN`: the MIC in the data set on Staphylococcus aureus [3] is greater than 64 µg/mL; in the data set with Bacillus subtilis [8], 64 µg/mL (≈ 112 µM); in the data set with Escherichia coli [10] it was greater than 64 µg/mL; in the data set with Pseudomonas aeruginosa [11], 64 µg/mL (≈ 112 µM).
On to `Cc1cn([C@H]2C[C@H](NC(=O)Cc3cccc4ccccc34)[C@@H](CNC(=O)Cc3cccc4ccccc34)O2)c(=O)nc1N(CCCN)CCCN`, for which the Ratio in the data set with Pseudomonas aeruginosa [2] came out at 2; in the data set on Bacillus subtilis [16] it was 2; in the data set with Escherichia coli [12] it was 4; in the data set on Staphylococcus aureus [17] it was 2. The MIC was found to be 16 µg/mL (≈ 23.2 µM) in the data set with Staphylococcus aureus [3], 4 µg/mL (≈ 5.8 µM) with Bacillus subtilis [8], 64 µg/mL (≈ 92.8 µM) with Escherichia coli [10] and 8 µg/mL (≈ 11.6 µM) in the data set on Pseudomonas aeruginosa [11].
Consider `CCCCCC(=O)NC[C@H]1O[C@@H](n2cc(C)c(N(CCCNC(=N)N)CCCNC(=N)N)nc2=O)C[C@@H]1NC(=O)CCCCC`, for which the MIC is 32 µg/mL (≈ 50.5 µM) in the data set on Staphylococcus aureus [3], 32 µg/mL (≈ 50.5 µM) with Bacillus subtilis [8], greater than 64 µg/mL in the data set on Escherichia coli [10] and 16 µg/mL (≈ 25.2 µM) in the data set on Pseudomonas aeruginosa [11].
Turning to `Cc1cn([C@H]2C[C@H](NC(=O)Cc3cccc4ccccc34)[C@@H](CNC(=O)Cc3cccc4ccccc34)O2)c(=O)nc1N(CCCNC(=N)N)CCCNC(=N)N`, the MIC in the data set with Staphylococcus aureus [3] was 8 µg/mL (≈ 10.3 µM); in the data set on Bacillus subtilis [8], 4 µg/mL (≈ 5.17 µM); with Escherichia coli [10], 64 µg/mL (≈ 82.7 µM); in the data set on Pseudomonas aeruginosa [11], 16 µg/mL (≈ 20.7 µM). Besides, in the data set on Bacillus subtilis [16], the Ratio is 2.
In the case of `CCCCCC(=O)NC[C@H]1O[C@@H](n2cc(C)c(NCCNC(=N)N)nc2=O)C[C@@H]1NC(=O)CCCCC`, the MIC is greater than 64 µg/mL in the data set with Staphylococcus aureus [3], greater than 64 µg/mL with Bacillus subtilis [8], greater than 64 µg/mL in the data set on Escherichia coli [10] and 64 µg/mL (≈ 123 µM) with Pseudomonas aeruginosa [11].
Consider `Cc1cn([C@H]2C[C@H](NC(=O)CC34CC5CC(CC(C5)C3)C4)[C@@H](CNC(=O)CC34CC5CC(CC(C5)C3)C4)O2)c(=O)nc1N(CCCN)CCCN`, for which the MHC in the data set on Erythrocyte [1] was found to be 52 µg/mL. Besides, the results for the Ratio in the data set on Pseudomonas aeruginosa [2], in the data set with Bacillus subtilis [16] and in the data set with Staphylococcus aureus [17] were 4, 4 and 2, respectively. For the same compound, the MIC in the data set on Staphylococcus aureus [3] came to 4 µg/mL (≈ 5.67 µM); in the data set on Bacillus subtilis [8], 2 µg/mL (≈ 2.83 µM); with Escherichia coli [10] it was 32 µg/mL (≈ 45.3 µM); in the data set on Pseudomonas aeruginosa [11], 4 µg/mL (≈ 5.67 µM). Further, the selectivity ratio in data set [4], in data set [6], in data set [7] and in data set [9] was 5 throughout. In the data set on Erythrocyte [5], the Activity result was “Non-Toxic”.
With `Cc1cn([C@H]2C[C@H](NC(=O)CCCc3ccccc3)[C@@H](CNC(=O)CCCc3ccccc3)O2)c(=O)nc1NCCNC(=N)N`, the MIC in the data set with Staphylococcus aureus [3] is 64 µg/mL (≈ 104 µM); in the data set with Bacillus subtilis [8], 64 µg/mL (≈ 104 µM); with Escherichia coli [10], greater than 64 µg/mL; in the data set on Pseudomonas aeruginosa [11], 32 µg/mL (≈ 51.9 µM).
Consider `Cc1cn([C@H]2C[C@H](NC(=O)C3CCCCC3)[C@@H](CNC(=O)C3CCCCC3)O2)c(=O)nc1NCCNC(=N)N`, for which the MIC in the data set on Staphylococcus aureus [3], with Bacillus subtilis [8], in the data set on Escherichia coli [10] and in the data set on Pseudomonas aeruginosa [11] was greater than 64 µg/mL each time.
On to `Cc1cn([C@H]2C[C@H](NC(=O)Cc3cccc4ccccc34)[C@@H](CNC(=O)Cc3cccc4ccccc34)O2)c(=O)nc1NCCNC(=N)N`, for which the MIC in the data set with Staphylococcus aureus [3] was 32 µg/mL (≈ 48.4 µM); in the data set on Bacillus subtilis [8] it was 16 µg/mL (≈ 24.2 µM); in the data set on Escherichia coli [10], greater than 64 µg/mL; with Pseudomonas aeruginosa [11], greater than 64 µg/mL.
As for `O=C(N[C@H](CO)[C@H](O)c1ccc([N+](=O)[O-])cc1)C(Cl)Cl` [CHLORAMPHENICOL], the MIC came to 512 µg/mL in the data set on Staphylococcus aureus [13], 256 µg/mL in the data set on Staphylococcus aureus [14] and 512 µg/mL with Staphylococcus aureus [15].
Regarding `Cc1cn([C@H]2C[C@H](NC(=O)CCCc3ccccc3)[C@@H](CNC(=O)CCCc3ccccc3)O2)c(=O)nc1N(CCCNC(=N)N)CCCNC(=N)N`, the MIC was 8 µg/mL (≈ 11 µM) in the data set on Staphylococcus aureus [3], 8 µg/mL (≈ 11 µM) in the data set on Bacillus subtilis [8], greater than 64 µg/mL with Escherichia coli [10] and 16 µg/mL (≈ 21.9 µM) in the data set on Pseudomonas aeruginosa [11].
For the compound `Cc1cn([C@H]2C[C@H](NC(=O)C3CCCCC3)[C@@H](CNC(=O)C3CCCCC3)O2)c(=O)nc1N(CCCNC(=N)N)CCCNC(=N)N`, the MIC was 32 µg/mL (≈ 48.6 µM) in the data set on Staphylococcus aureus [3], 32 µg/mL (≈ 48.6 µM) in the data set on Bacillus subtilis [8], greater than 64 µg/mL in the data set on Escherichia coli [10] and 16 µg/mL (≈ 24.3 µM) in the data set with Pseudomonas aeruginosa [11].
Turning to `Cc1cn([C@H]2C[C@H](NC(=O)CCCc3ccccc3)[C@@H](CNC(=O)CCCc3ccccc3)O2)c(=O)nc1N(CCCN)CCCN`, the MIC with Staphylococcus aureus [3] was 32 µg/mL (≈ 49.5 µM); with Bacillus subtilis [8] it was 16 µg/mL (≈ 24.8 µM); in the data set with Escherichia coli [10], greater than 64 µg/mL; in the data set on Pseudomonas aeruginosa [11], 4 µg/mL (≈ 6.19 µM).
`Cc1onc(-c2ccccc2)c1C(=O)N[C@@H]1C(=O)N2[C@@H]1SC(C)(C)[C@@H]2C(=O)O` [OXACILLIN]: the MIC worked out at 256 µg/mL with Staphylococcus aureus [13], 512 µg/mL with Staphylococcus aureus [14] and 256 µg/mL in the data set on Staphylococcus aureus [15].
Turning to `CC[C@H](C)[C@H](NC(=O)CN)C(=O)NCC(=O)N[C@@H](C)C(=O)N[C@H](C(=O)N[C@@H](CC(C)C)C(=O)N[C@@H](CCCCN)C(=O)N[C@H](C(=O)N[C@@H](CC(C)C)C(=O)N[C@H](C(=O)N[C@H](C(=O)NCC(=O)N[C@@H](CC(C)C)C(=O)N1CCC[C@H]1C(=O)N[C@@H](C)C(=O)N[C@@H](CC(C)C)C(=O)N[C@H](C(=O)N[C@@H](CO)C(=O)N[C@@H](Cc1c[nH]c2ccccc12)C(=O)N[C@H](C(=O)N[C@@H](CCCCN)C(=O)N[C@@H](CCCNC(=N)N)C(=O)N[C@@H](CCCCN)C(=O)N[C@@H](CCCNC(=N)N)C(=O)N[C@@H](CCC(N)=O)C(=O)N[C@@H](CCC(N)=O)C(N)=O)[C@@H](C)CC)[C@@H](C)CC)[C@@H](C)O)[C@@H](C)O)C(C)C)C(C)C` [MELITTIN], the hemolysis at 2 h, 4 ug/ml in [18] is 12%. Further, the MHC in the data set on Erythrocyte [1] came to 4 µg/mL. Besides, the selectivity ratio in data set [4], in data set [6], in [7] and in data set [9] was 0.3 in each case.
